Data from patent US20120071516A1, “COMPOUNDS THAT MODULATE INTRACELLULAR CALCIUM” (CalciMedica, Inc., priority 2010, published 2012).
pIC50: −log10 of the molar value.

Columns and labels:
Orai1/STIM1 = target: T1, Orai1/STIM1 (Homo sapiens, UniProt Q96D31); assay: Fluorescence-based assay of store-operated calcium entry in Orai1/STIM1 stable cells; type: cell-based; parameters: key to Orai1/STIM1 (IC50, μmol): A ≦ 1.0 μmol; B > 1.0 μmol; -- = no fit; details: HEK-293 cells stably expressing human STIM1 and Orai1, 50% inhibition of Peak-Basal fluo-4 signal, 30 minutes compound incubation; for pIC50: read-out: Orai1/STIM1 (IC50, μmol)
T1 construct: c-myc (C); expressed in transfected cells
T1 sequence (Q96D31 whole entry): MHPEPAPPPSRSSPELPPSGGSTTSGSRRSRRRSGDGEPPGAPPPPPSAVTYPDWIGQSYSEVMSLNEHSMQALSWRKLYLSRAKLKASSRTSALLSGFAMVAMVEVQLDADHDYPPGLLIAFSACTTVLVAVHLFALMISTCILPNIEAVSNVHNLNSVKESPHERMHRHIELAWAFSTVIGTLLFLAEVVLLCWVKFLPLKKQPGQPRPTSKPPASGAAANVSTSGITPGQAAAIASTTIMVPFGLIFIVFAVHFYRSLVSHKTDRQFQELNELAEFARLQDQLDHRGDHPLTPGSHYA
Method: A. Fluorescence-Based Assay of Store-Operated Calcium Entry in Orail/STIM1 Stable Cells.
Cells stably expressing recombinant human STIM1 and Orail are generated by transfecting a human Orail expression plasmid (pcDNA3.1-Orail-cmyc) into HEK-293 cells stably overexpressing human STIM1 (Roos et al. 2005 JCB 169(3): 435-445). Colonies of cells stably expressing both STIM1 and Orail proteins are selected and then subcloned by limiting dilution. Cells were cultured at 37° C./6% CO2 in complete medium with 10% FBS and appropriate selection markers.
The day prior to performing the assay Orail/STIM1 stable cells are plated in 50 μL of complete medium at 90-95% confluence in a 384 well plate. Cells are grown at 37° C./6% CO2 overnight. On the day of the assay, 1.5 μM fluo-4-AM (Invitrogen) in complete medium is added to the cells, which are then incubated for 1 hour at RT. Cells are washed once in Ca^2+-free HBSS (Hank's buffered saline solution) and 35 μl of Ca^2+-free HBSS is added to each well. Test compounds are added to wells in a 10 μL Ca^2+-free HBSS solution, prepared at 4.5× the desired final concentration, and incubated for 30 minutes at RT. The initial baseline fluorescence signal is then measured with a FLIPR^384 (Molecular Devices) plate reader. Calcium entry is initiated by adding 5 μl of 10×CaCl2 (10 mM) in HBSS, and changes in cellular fluorescence are measured with the FLIPR^384 plate reader. In each well, the magnitude of the fluorescence signal as a result of calcium entry into the cell is determined by calculating the difference between the peak fluorescence signal measured after calcium addition and the initial baseline fluorescence signal (designated Peak-Basal). IC50 values are typically calculated as the concentration that inhibited 50% of the Peak-Basal signal (Table A).

RBL-2H3 cells = assay: Fluorescence-based assay of store-operated calcium entry in RBL-2H3 cells; type: cell-based; details: Rattus norvegicus, thapsigargin, 50% inhibition of Upslope (7 seconds after calcium addition), read-out: RBL-2H3 (IC50, μmol)
Method: B. Fluorescence-Based Assay of Store-Operated Calcium Entry in RBL-2H3 Cells.
RBL-2H3 cells are obtained from ATCC and maintained in complete medium with 10% FBS at 37° C./6% CO2.
The day prior to performing the assay, RBL-2H3 cells are plated in 50 μL of complete medium in a 384 well plate. Cells are grown at 37° C./6% CO2 overnight and grow to 50-60% confluence by the next day. On the assay day, 1.5 μM Fluo-4-AM dye (Invitrogen) in complete medium is added and incubated for 1 hour at RT. Cells are washed twice in Ca^2+-free HBSS buffer and 35 μL Ca^2+-free HBSS buffer is added to each well. 10 μL of a test compound prepared in a Ca^2+-free HBSS solution at 4.5× of the desired concentration is added to a well and incubated for 5 minutes at RT. 10 μL of thapsigargin prepared in a Ca^2+-free HBSS solution at 5.5× of the desired concentration (5.5 uM) is added to each well and incubated for an additional 25 minutes. The initial baseline fluorescence signal is measured with a FLIPR^384 (Molecular Devices) plate reader. 5 μL of 12× calcium in HBSS (12 mM) is added and changes in cellular fluorescence are measured with the FLIPR^384 plate reader. In each well, the change in the fluorescent signal as a function of time due to calcium entry into the cell is determined by calculating the difference between the fluorescent signal measured 7 seconds after calcium addition and the initial baseline fluorescence signal at time zero (t=0). This parameter is designated Upslope. The IC50 value is calculated as the concentration at which 50% of the Upslope is inhibited.

[1] = target: STIM1 and Orail in HEK293 cells (Homo sapiens, UniProt Q96D31); details: HEK293 cells co-expressing STIM1 and Orai1; cited from earlier work
Sequence of STIM1 and Orail in HEK293 cells (Q96D31 whole entry): as above

Jurkat cells = Jurkat cells and colon cancer cells; cited from earlier work

| Structure (SMILES) | pIC50 (Orai1/STIM1) | pIC50 (RBL-2H3 cells) | other results |
| --- | --- | --- | --- |
| Cn1nc(C(F)(F)F)cc1-c1ccc(C(=O)Nc2ccccc2F)[se]1 | ≥ 6.00 | ≥ 6.00 |  |
| Cn1nc(C(F)(F)F)cc1-c1ccc(C(=O)Nc2c(F)cccc2F)[se]1 | ≥ 6.00 | ≥ 6.00 |  |
| Cn1nc(C(F)(F)F)cc1-c1ccc(C(=O)Nc2ccncc2F)[se]1 | ≥ 6.00 | ≥ 6.00 |  |
| Cn1nc(-c2ccccc2F)cc1-c1ccc(C(=O)Nc2ccccc2F)[se]1 | ≥ 6.00 | ≥ 6.00 |  |
| Cn1nc(-c2ccccc2F)cc1-c1ccc(C(=O)Nc2c(F)cccc2F)[se]1 | ≥ 6.00 | ≥ 6.00 |  |
| Cn1nc(-c2ccccc2F)cc1-c1ccc(C(=O)Nc2ccncc2F)[se]1 | ≥ 6.00 | ≥ 6.00 |  |
| Cn1nc(-c2ccco2)cc1-c1ccc(C(=O)Nc2ccccc2F)[se]1 | ≥ 6.00 | ≥ 6.00 |  |
| Cn1nc(-c2ccco2)cc1-c1ccc(C(=O)Nc2c(F)cccc2F)[se]1 |  | < 6.00 | Orai1/STIM1 (IC50, μmol) (Orai1/STIM1): -- |
| Cn1nc(-c2ccco2)cc1-c1ccc(C(=O)Nc2ccncc2F)[se]1 | ≥ 6.00 | ≥ 6.00 |  |
| Cn1nc(-c2nccs2)cc1-c1ccc(C(=O)Nc2ccccc2F)[se]1 | ≥ 6.00 | ≥ 6.00 |  |
| Cn1nc(-c2nccs2)cc1-c1ccc(C(=O)Nc2c(F)cccc2F)[se]1 | ≥ 6.00 | ≥ 6.00 |  |
| Cn1nc(-c2nccs2)cc1-c1ccc(C(=O)Nc2ccncc2F)[se]1 | ≥ 6.00 | ≥ 6.00 |  |
| O=C(Nc1ccncc1F)c1ccc(-c2cc(C(F)(F)F)ccc2Cl)[se]1 | < 6.00 | < 6.00 |  |
| Cc1nc2cc(Cl)c(-c3ccc(C(=O)Nc4ccccc4F)[se]3)cc2o1 | ≥ 6.00 | ≥ 6.00 |  |
| Cc1cc2scnc2cc1-c1ccc(C(=O)Nc2c(F)cccc2F)[se]1 | ≥ 6.00 | ≥ 6.00 |  |
| O=C(Nc1[se]cc(-c2ccc(Cl)cc2)c1C(=O)O)c1nc2ccccc2s1 | < 6.00 | < 6.00 |  |
| O=C(Nc1[se]cc(-c2ccc(Br)cc2)c1C(=O)O)c1nc2ccccc2s1 | < 6.00 | ≥ 6.00 |  |
| O=C(Nc1[se]cc(-c2ccc(Br)cc2)c1C(=O)O)c1cc2ccccc2o1 | ≥ 6.00 | ≥ 6.00 |  |

| Structure (SMILES) | pIC50 (Orai1/STIM1) | pIC50 (RBL-2H3 cells) | other results |
| --- | --- | --- | --- |
| Cn1nc(C(F)(F)F)cc1-c1cnc(NC(=O)c2ccccc2F)[se]1 | ≥ 6.00 | ≥ 6.00 |  |
| Cn1nc(C(F)(F)F)cc1-c1cnc(NC(=O)c2ccccc2Cl)[se]1 | ≥ 6.00 | ≥ 6.00 |  |
| Cn1nc(C(F)(F)F)cc1-c1cnc(NC(=O)c2c(F)cccc2F)[se]1 | ≥ 6.00 | ≥ 6.00 |  |
| CCn1nc(C(F)(F)F)cc1-c1cnc(NC(=O)c2ccccc2F)[se]1 | ≥ 6.00 | ≥ 6.00 |  |
| Cn1nc(-c2ccccc2F)cc1-c1cnc(NC(=O)c2ccccc2F)[se]1 | < 6.00 | ≥ 6.00 |  |
| Cc1ccccc1-c1cnc(NC(=O)c2ccccc2F)[se]1 | ≥ 6.00 | ≥ 6.00 |  |
| Cc1ccccc1-c1cnc(NC(=O)c2ccccc2Cl)[se]1 | ≥ 6.00 | ≥ 6.00 |  |
| Cc1ccccc1-c1cnc(NC(=O)c2c(F)cccc2F)[se]1 | ≥ 6.00 | ≥ 6.00 |  |
| Cc1ccc(F)cc1-c1cnc(NC(=O)c2ccccc2F)[se]1 | ≥ 6.00 | ≥ 6.00 |  |
| Cc1ccc(Cl)cc1-c1cnc(NC(=O)c2ccccc2F)[se]1 | ≥ 6.00 | ≥ 6.00 |  |
| O=C(Nc1ncc(-c2ccccc2C(F)(F)F)[se]1)c1ccccc1F | ≥ 6.00 | ≥ 6.00 |  |
| Cc1cscc1-c1cnc(NC(=O)c2ccccc2F)[se]1 | < 6.00 | ≥ 6.00 |  |
| Cc1cc2c(cc1-c1cnc(NC(=O)c3ccccc3F)[se]1)OC(F)(F)O2 | ≥ 6.00 | ≥ 6.00 |  |
| Cc1cc2c(cc1-c1cnc(NC(=O)c3c(F)cccc3F)[se]1)OC(F)(F)O2 | < 6.00 | ≥ 6.00 |  |
| Cc1cc(OC(F)(F)F)ccc1-c1cnc(NC(=O)c2ccccc2F)[se]1 | ≥ 6.00 | ≥ 6.00 |  |
| Cc1cc(OC(F)(F)F)ccc1-c1cnc(NC(=O)c2c(F)cccc2F)[se]1 |  | ≥ 6.00 | Orai1/STIM1 (IC50, μmol) (Orai1/STIM1): -- |
| NCCOB(c1ccccc1)c1ccccc1 [2-aminoethoxydiphenylborate] |  |  | block of store-operated Ca2+ entry [1]: completely blocked |
| Cc1nnsc1C(=O)Nc1ccc(-n2nc(C(F)(F)F)cc2C(F)(F)F)cc1 [BTP-2] |  |  | inhibition of SOCE (Jurkat cells): inhibits; inhibition of proliferation (Jurkat cells): inhibits |
